# Patent US5266328A, “Laminin a chain polypeptides from the carboxy terminal globular domain” (Regents of the University of Minnesota, priority 1990, dated 1993)
# Assays:
# [1] = Solid-phase binding of 3H-heparin to peptides adsorbed to plastic plates (RLBA)
# Protocol: The binding of ^3 H-heparin to laminin A chain peptides was measured in a direct solid phase binding assay as described below, whereby various amounts of the peptides were adsorbed to plates and ^3 H-heparin was added to each well. More specifically, the binding of ^3 H-heparin (0.3 mCi/mg; Du Pont - New England Nuclear Research Products, Wilmington, Del.) to laminin, synthetic peptides, and bovine serum albumin (BSA) (fatty acid free, fraction V, ICN Immunobiologicals) was quantititated by a solid-phase RLBA in 96-well polystyrene Immulon 1 plates (Dynatech Laboratories, Inc., Alexandria, Va.) as described by Skubitz et al., supra (1988). Specifically, 50 microliters of the various proteins at various concentrations (0.2 μg/well-5.0 μg/well) in PBS containing 0.02% NaN3 was added to each well and dried overnight at 29° C. The next day, 200 μl of 2 mg/ml BSA in PBS was added to each well, followed by a 2 hour incubation at 37° C. After removal of this buffer, 50 μl of ^3 H-heparin (200,000 dpm) was added in RLBA buffer (20 mM Tris, pH 6.8 containing 50 mM NaCl and 2 mg/ml ovalbumin) and the wells were incubated at 37° C. for 2 hours. Unbound ^3 H-heparin was removed by washing three times with wash buffer (RLBA buffer containing 0.1% CHAPS). Tritiated heparin was solubilized by incubation with 200 μl of 0.05N NaOH and 1% SDS for 30 minutes at 60° C. and quantitated in a Beckman LS-3801 scintillation counter.
# The above experimental procedure was repeated to determine the percentage of ^3 H-heparin that would adhere to 2 μg/well of each polypeptide after a two-hour incubation in increasing concentrations of salt (NaCl).
# [2] = test system: human colon carcinoma KM12 C (low metastatic) cell line; experiment: Direct cell adhesion to peptide-coated surfaces; type: cell-based; settings: surface coated with 1 μg
# Description: (§1) The murine melanoma K-1735-C10 (low metastatic) and K-1735-M4 (high metastatic) cell lines, murine UV-2237-MM fibrosarcoma cell line, human renal carcinoma SN12 C (low metastatic) and SN12 PM-6 (high metastatic) cell lines, and human colon carcinoma KM12 C (low metastatic) and KM12 SM (high metastatic) cell lines were originally provided by Dr. I. J. Fidler (M.D., Anderson Hospital, University of Texas Health Sciences Center, Houston, Tex.). The human fibrosarcoma HT-1080 cell line was obtained from the ATCC. The MM fibrosarcoma cell line was maintained in DME (GIBCO Laboratories, Grand Island, N.Y.) containing 10% FBS, the murine melanomas were maintained in DMEM containing 10% calf serum, the human fibrosarcoma cells were maintained in EMEM containing 10% heat inactivated FBS, and the human renal and colon carcinoma cells were grown in EME containing 10% FBS, vitamins, and 1 mM sodium pyruvate. Cells were passaged for 4 to 5 weeks and then replaced from frozen stocks of early passage cells to minimize phenotypic drift. Cells were maintained at 37° C. in a humidified incubator containing 5% CO2.
# (§2) The direct adhesion of cells to protein or peptide coated surfaces was performed as described in Skubitz et al., Exp. Cell Res., 173, 349-360 (1987) and Charonis et al., supra (1988). Briefly, radiolabeled cells were added to 96-well microtiter plates coated with various concentrations of synthetic peptides, laminin, or BSA (0.02 μg/well-50 μg/well from 50 μl solutions) for various lengths of time. After the incubation period, loosely or nonadherent cells were removed by washing the wells three times. Adherent cells were solubilized and quantitated in a scintillation counter. More specifically, cultures of cells which were 60-80% confluent were metabolically labeled for 24 hours with the addition of 3 μCi/ml of ^3 H-td (tritiated thymidine). On the day of the assay, the cells were harvested by trypsinization, the trypsin was inhibited by the addition of serum, and the cells were washed free of this mixture and resuspended in DMEM buffered with HEPES at pH 7.2. The adhesion medium also contained 2 mg/ml BSA. The cells were adjusted to a concentration of 3-4×10^4 /ml, and 100 μl of this cell suspension was added to the wells. The assay mixture was then incubated at 37° C. for 120 minutes. At the end of the incubation, the wells were washed with warm DMEM/Hepes containing 2 mg/ml BSA, and the adherent population was solubilized with 0.5N NaOH contained 1% SDS. The solubilized cells were then quantitated using a liquid scintillation counter.
# (§3) Instead of attempting to characterize the cell binding activity of all 14 of the synthetic peptides, a number of peptides from each of the three heparin binding categories of peptides were evaluated. Microtiter wells were adsorbed with the peptides, laminin, or BSA and a variety of tumor cell lines were tested for the ability to adhere to the ligands. The eight different cell lines selected for this study were of murine or human origin and, in most cases, of either high or low metastatic capacity. […] Many of the peptides that were very good at binding heparin and cells were also capable of inhibiting the adhesion of various cells to surfaces coated with laminin (see below).
# [3] = test system: human colon carcinoma KM12 SM (high metastatic) cell line; experiment: Direct cell adhesion to peptide-coated surfaces; type: cell-based; settings: surface coated with 1 μg
# Description: as §1, §2, §3
# [4] = test system: human renal carcinoma SN12 C (low metastatic) cell line; experiment: Direct cell adhesion to peptide-coated surfaces; type: cell-based; settings: surface coated with 1 μg; human renal (SN12C)
# Description: as §1, §2, §3
# [5] = test system: human renal carcinoma SN12 PM-6 (high metastatic) cell line; experiment: Direct cell adhesion to peptide-coated surfaces; type: cell-based; settings: surface coated with 1 μg; human renal (SN12 PM6)
# Description: as §1, §2, §3
# [6] = test system: murine UV-2237-MM fibrosarcoma cell line; experiment: Direct cell adhesion to peptide-coated surfaces; type: cell-based; settings: surface coated with 1 μg
# Description: as §1, §2, §3
# [7] = test system: murine melanoma K-1735-C10 (low metastatic) cell line; experiment: Direct cell adhesion to peptide-coated surfaces; type: cell-based; settings: surface coated with 1 μg
# Description: as §1, §2, §3
# [8] = test system: murine melanoma K-1735-M4 (high metastatic) cell line; experiment: Direct cell adhesion to peptide-coated surfaces; type: cell-based; settings: surface coated with 1 μg
# Description: as §1, §2, §3
# [9] = test system: human fibrosarcoma HT-1080 cell line; experiment: Direct cell adhesion to peptide-coated surfaces; type: cell-based; settings: surface coated with 1 μg; human fibrosarcoma (HT1080)
# Description: (§4) The murine melanoma K-1735-C10 (low metastatic) and K-1735-M4 (high metastatic) cell lines, murine UV-2237-MM fibrosarcoma cell line, human renal carcinoma SN12 C (low metastatic) and SN12 PM-6 (high metastatic) cell lines, and human colon carcinoma KM12 C (low metastatic) and KM12 SM (high metastatic) cell lines were originally provided by Dr. I. J. Fidler (M.D., Anderson Hospital, University of Texas Health Sciences Center, Houston, Tex.). The human fibrosarcoma HT-1080 cell line was obtained from the ATCC. […]
# (§5) The direct adhesion of cells to protein or peptide coated surfaces was performed as described in Skubitz et al., Exp. Cell Res., 173, 349-360 (1987) and Charonis et al., supra (1988). […] Adherent cells were solubilized and quantitated in a scintillation counter. […] The solubilized cells were then quantitated using a liquid scintillation counter.
# (§6) Instead of attempting to characterize the cell binding activity of all 14 of the synthetic peptides, a number of peptides from each of the three heparin binding categories of peptides were evaluated. […]
# Radiolabeled HT-1080 human fibrosarcoma cells were incubated in the wells for 30 minutes and the adhesion of cells was quantitated.
# [10] = test system: eight different cell lines of murine or human origin; experiment: Direct cell adhesion, summary over eight tumor cell lines; type: cell-based; settings: summary of Table IV over eight cell lines
# Description: as §4, §5, §6
# [11] = test system: human colon (KM12 C) cells; experiment: Inhibition of cell adhesion to laminin-coated surfaces; type: cell-based; settings: soluble peptide 10 μg/ml, surface coated with 1.5 μg of laminin
# Description: as §1
# (§7) Inhibition of cell adhesion with synthetic peptides was performed using assays similar to those described by Skubitz et al., supra (1987). Briefly, radiolabeled cells at 5×10^4 /ml were incubated for 30 minutes with various concentrations of synthetic peptides (1.0 μg/ml-200 μg/ml) in DME/Hepes containing 2 mg/ml BSA. One hundred microliters of the cell suspension was then added to wells precoated with 1.5 μg of laminin, 1.0 μg of type IV collagen, or 1.0 μg of fibronectin. The cells were incubated for 30 minutes at 37° C., then the wells were washed and adherent cells were quantitated as previously described [Skubitz et al., supra (1987)]. Cell viability after a one hour incubation in the presence of the "inhibitors" was assessed by trypan blue dye exclusion.
# [12] = test system: human fibrosarcoma (HT1080) cells; experiment: as above; type: cell-based; settings: soluble peptide 20 μg/ml, surface coated with 1.5 μg of laminin
# Description: as §1, §7
# [13] = test system: human renal (SN12 PM6) cells; experiment: as above; type: cell-based; settings: soluble peptide 10 μg/ml, surface coated with 1.5 μg of laminin
# Description: as §1, §7
# [14] = test system: human renal (SN12C) cells; experiment: as above; type: cell-based; settings: soluble peptide 10 μg/ml, surface coated with 1.5 μg of laminin
# Description: as §1, §7
# [15] = test system: murine fibrosarcoma (MM) cells; experiment: as above; type: cell-based; settings: soluble peptide 10 μg/ml, surface coated with 1.5 μg of laminin
# Description: as §1, §7
# [16] = test system: murine melanoma (C10) cells; experiment: as above; type: cell-based; settings: soluble peptide 10 μg/ml, surface coated with 1.5 μg of laminin
# Description: as §1, §7
# [17] = test system: murine melanoma (M4) cells; experiment: as above; type: cell-based; settings: soluble peptide 10 μg/ml, surface coated with 1.5 μg of laminin
# Description: as §1, §7
# [18] = test system: HT-1080 human fibrosarcoma cells; experiment: Cell spreading assay; type: cell-based; settings: for Surface Area Occuppied by a Cell / Surface Area Occupied by a Cell: wells coated at 100 μg/ml, 2 1/2 hour incubation; for Surface Area Occuppied by a Cell: HT-1080, Table VII; for Surface Area Occupied by a Cell: human fibrosarcoma (HT1080), Table VI
# Protocol: (§8) Spreading of the adherent cells was evaluated by performing adhesion assays similar to those described above. Twenty-four well tissue culture plates (Becton Dickinson and Co., Lincoln Park, N.J.) were coated with 300 μl of laminin, synthetic peptides, or BSA at 100 μg/ml, then blocked with 2 mg/ml BSA in PBS. Three hundred microliters of a cell suspension at 5×10^4 cells/ml was added to each well, and after a 21/2 hour incubation, nonadherent cells were aspirated out of the wells. Adherent cells were fixed with 2% glutaraldehyde in PBS at 23° C. for one hour. The glutaraldehyde was then removed and the cells were stained by two different techniques. For photographic purposes, the cells were stained with Diff-Quik Solution I (American Scientific Products, McGaw Park, Ill.) for 10 minutes at 23° C. Solution I was removed, then Diff-Quik Solution II was added and the cells were stained for another 10 minutes at 23° C. Wells were washed with PBS, then representative cells were photographed with a Nikon DIAPHOT inverted phase microscope using Panatomic X Film ASA32 (Eastman Kodak, Rochester, N.Y.). Adherent cells to be quantitated for spreading were stained overnight at 23° C. with 500 μl of a solution containing 0.12% (w/v) Coomassie Brilliant Blue R (Sigma Chemical Co.), 5% (v/v) acetic acid, and 50% (v/v) ethanol. Wells were washed three times with 500 μl of PBS and cell spreading was then quantitated by measuring the average surface area occupied by a cell using an Opti-Max Image Analyzer. Thirty cells were measured per well; each experiment was done in quadruplicate and repeated three times. In all cases, the cells spread on the peptides to occupy an area about 60% of that seen on laminin-coated surfaces.
# [19] = test system: human renal (SN12 PM6) cells; experiment: Cell spreading assay; type: cell-based; settings: wells coated at 100 μg/ml, 2 1/2 hour incubation
# Protocol: as §8
# [20] = test system: human renal (SN12C) cells; experiment: Cell spreading assay; type: cell-based; settings: wells coated at 100 μg/ml, 2 1/2 hour incubation
# Protocol: as §8
# [21] = test system: murine fibrosarcoma (MM) cells; experiment: Cell spreading assay; type: cell-based; settings: wells coated at 100 μg/ml, 2 1/2 hour incubation
# Protocol: as §8
Substance,Percentage of Cells Adhered to Surface [2],Percentage of Cells Adhered to Surface [4],Percentage of Cells Adhered to Surface [5],Percentage of Cells Adhered to Surface [6],Percentage of Cells Adhered to Surface [7],Percentage of Cells Adhered to Surface [8],Percentage of Cells Adhered to Surface [9],Surface Area Occuppied by a Cell [18],Surface Area Occupied by a Cell [18],Surface Area Occupied by a Cell [19],Surface Area Occupied by a Cell [20],Surface Area Occupied by a Cell [21],other results
"KQNCLSSRASFRGCVRNLRLSR [Peptide R30, laminin A chain residues 3011-3032]",48%,84%,67%,56%,82%,25%,92%,392 +/- 27 um2,392 ± 27 μm^2,311 ± 19 μm^2,292 ± 22 μm^2,291 ± 21 μm^2,"Heparin Binding (bound ^3 H-heparin as percent of input) ([1]; One microgram peptide adsorbed, 200,000 dpm ^3 H-heparin, 20 mM Tris pH 6.8, 50 mM NaCl, 2 mg/ml ovalbumin): **** (>10% [****]); Bound ^3 H-heparin as percent of input, 0.05M NaCl ([1]; Two micrograms peptide adsorbed, 0.02M Tris pH 6.8, 0.05M NaCl, 2 hr 37 C): **** (>10% (****)); Bound ^3 H-heparin as percent of input, 0.15M NaCl ([1]; Two micrograms peptide adsorbed, 0.02M Tris pH 6.8, 0.15M NaCl, 2 hr 37 C): **** (>10% (****)); Bound ^3 H-heparin as percent of input, 0.5M NaCl ([1]; Two micrograms peptide adsorbed, 0.02M Tris pH 6.8, 0.5M NaCl, 2 hr 37 C): *** (6.0-10.0% (***)); Bound ^3 H-heparin as percent of input, 1.0M NaCl ([1]; Two micrograms peptide adsorbed, 0.02M Tris pH 6.8, 1.0M NaCl, 2 hr 37 C): * (2.0-3.9% (*)); Heparin binding activity group ([1]; grouping of the Table II results in words): very good heparin binding; Percentage of Cells Adhered to Surface [3]: 69%; promotion of cell adhesion, in words [10]: capable of promoting the adhesion of all eight cell lines; Percentage Inhibition of Laminin-Mediated Cell Adhesion [11]: 59%; Percentage Inhibition of Laminin-Mediated Cell Adhesion [12]: 51%; Percentage Inhibition of Laminin-Mediated Cell Adhesion [13]: 44%; Percentage Inhibition of Laminin-Mediated Cell Adhesion [14]: 0%; Percentage Inhibition of Laminin-Mediated Cell Adhesion [15]: 25%; Percentage Inhibition of Laminin-Mediated Cell Adhesion [16]: 22%; Percentage Inhibition of Laminin-Mediated Cell Adhesion [17]: 38%; HT-1080 cell spreading, in words ([18]; ranking of Table VII): promoted the most cell spreading"
Laminin: extracellular matrix glycoprotein isolated from the EHS murine tumor; positive control,11%,28%,36%,53%,58%,13%,41%,610 +/- 62 um2,610 ± 62 μm^2,550 ± 29 μm^2,520 ± 14 μm^2,443 ± 32 μm^2,
